{
  "source": "patent US20080125358A1",
  "about": "“Methods for Chk2 inhibitor patient selection” (UNIVERSITY OF MASSACHUSETTS MEDICAL SCHOOL, priority 2006, published 2008)",
  "key": {"Chk2": {"target": "Chk2 (Homo sapiens, UniProt O96017)", "sequence (O96017 whole entry)": "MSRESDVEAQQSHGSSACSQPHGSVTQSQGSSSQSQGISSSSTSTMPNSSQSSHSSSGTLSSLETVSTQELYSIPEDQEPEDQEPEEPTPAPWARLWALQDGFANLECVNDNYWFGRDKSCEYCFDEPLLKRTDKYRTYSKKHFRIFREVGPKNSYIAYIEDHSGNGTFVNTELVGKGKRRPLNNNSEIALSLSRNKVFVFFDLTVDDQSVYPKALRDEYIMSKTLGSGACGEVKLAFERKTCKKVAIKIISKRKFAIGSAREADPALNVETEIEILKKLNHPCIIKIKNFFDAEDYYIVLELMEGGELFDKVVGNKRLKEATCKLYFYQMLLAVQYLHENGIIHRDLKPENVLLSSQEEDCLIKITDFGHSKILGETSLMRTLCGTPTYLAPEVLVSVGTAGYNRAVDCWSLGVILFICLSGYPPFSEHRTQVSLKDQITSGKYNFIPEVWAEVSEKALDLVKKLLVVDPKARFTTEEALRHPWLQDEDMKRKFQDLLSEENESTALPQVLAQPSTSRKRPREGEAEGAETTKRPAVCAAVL", "conditions": "expressed and purified Chk2; cited from earlier work"}, "[1]": {"test_system": "prostate carcinoma PC3 cells", "test": "Survivin expression after DNA damage, Western blotting", "assay_type": "cell-based, human", "conditions": "analyzed after 12 hours", "experimental": "(§1) Tumor cell types were exposed to ionizing radiation at doses ranging between 5-10 Gray (Gy) using a ^137Cs source (Gammacell 40), or, alternatively, treated with adriamycin (0-100 nM, Sigma). Cells were harvested after 2-48 h, and analyzed by Western blotting. Antibodies were used having affinities for; i) survivin (1:1000, Novus Biologicals); ii) Chk2 (1:500; Upstate Biotechnology); iii) cytochrome c (1:100; BD Biosciences-Pharmingen); iv) COX-IV (1:500; BD Biosciences-Clontech); v) caspase-3 (1:1000, Cell Signaling Technology); vi) cleaved caspase-3 (1:1000, Cell Signaling Technology); vii) cyclin B1 (1:1000, GNS1, Santa Cruz Biotechnology, Inc.); viii) XIAP (1:1000; Transduction Laboratories); xi) β-actin (1:5000, clone AC-15, A5441; Sigma-Aldrich); and xii) Thr^68-phosphorylated Chk2 (Cell Signaling Technology)."}, "[2]": {"test_system": "HCT116 clones #102 and #202", "test": "Xenograft tumor model, HCT116 clones conditionally expressing Chk2-DN", "assay_type": "in vivo, mice", "experimental": "All examples involving animals were approved by an Institutional Animal Care and Use Committee. […] Approximately 2.5×10^6 cells were injected into each hindlimb flank of 6-8 week old female immunocompromised CB17 SCID/beige mice (i.e., thereby generating 2 tumors/mouse). […] Tumor growth was monitored with a caliper according to the formula ½ [length (mm)]×[width (mm)]^2. At the end of the experiment, tumors were excised, and frozen sections from the various groups were stained with control IgG or a FITC-conjugated antibody to HA, and analyzed by fluorescence microscopy."}, "HCT116 cells [3]": {"test_system": "HCT116 cells", "test": "Caspase activity and cell death by multiparametric flow cytometry after DNA damage", "assay_type": "cell-based", "conditions": "p53+/+ or p53-/- HCT116 cells, ionizing radiation", "experimental": "For gene silencing by short interference RNA (siRNA), tumor cell types were transfected with control (VIII) or survivin-derived (S4) double stranded (ds) RNA oligonucleotides (50 nM) using oligofectamine (3 μl/well), as previously described. Beltrami et al., “Acute ablation of survivin uncovers p53-dependent mitotic checkpoint functions and control of mitochondrial apoptosis” J Biol Chem 279:2077-84 (2004). Alternatively, cells were transfected with control or SMART® pool siRNA oligonucleotides to Chk1 or Chk2 (Dharmacon) using oligofectamine. A replication-deficient adenovirus expressing Chk2-DN was constructed using the pAd-Easy® system, and used at a multiple of infection (m.o.i.) of 50.\nTumor cell types were treated with or without ionizing radiation, harvested after 24 h, and analyzed for changes in cell cycle distribution by propidium iodide staining and flow cytometry. Alternatively, cells were exposed to ionizing radiation, and analyzed after 24-48 h for propidium iodide staining (red channel) and active caspase-3 activity (CaspaTag®, Intergen®, green channel), by simultaneous multiparametric flow cytometry. Dohi et al., “Mitochondrial survivin inhibits apoptosis and promotes tumorigenesis” J Clin Invest 114:1117-1127 (2004)."}, "MCF-7 cells": {"test_system": "MCF-7 cells", "test": "Ionizing radiation-induced survivin expression, Western blotting", "assay_type": "cell-based", "conditions": "MCF-7 cells transfected", "experimental": "as §1\nFor gene silencing by short interference RNA (siRNA), tumor cell types were transfected with control (VIII) or survivin-derived (S4) double stranded (ds) RNA oligonucleotides (50 nM) using oligofectamine (3 μl/well), as previously described. Beltrami et al., “Acute ablation of survivin uncovers p53-dependent mitotic checkpoint functions and control of mitochondrial apoptosis” J Biol Chem 279:2077-84 (2004). Alternatively, cells were transfected with control or SMART® pool siRNA oligonucleotides to Chk1 or Chk2 (Dharmacon) using oligofectamine. […]"}, "HCT116 cells [4]": {"test_system": "HCT116 cells", "test": "Colony formation assay in soft agar", "assay_type": "cell-based", "conditions": "increasing doses of ionizing radiation", "experimental": "Wild-type HCT116 cells were transduced with a replication deficient adenovirus encoding GFP, Chk2-DN, or Thr^34→Ala^34 survivin DN at an m.o.i. of 50. O'Connor et al., “A p34(cdc2) survival checkpoint in cancer” Cancer Cell 2:43-54 (2002). Twenty-four hours later, approximately 3×10^4 cells were treated with or without ionizing radiation, and suspended in 1.5 ml of DMEM plus 10% FBS and 0.35% bactoagar (BD) in 6-well culture plates containing 1.5 ml of 0.75% agarose in growth medium at the bottom layer. Plates were incubated at 37° C. in 5% CO2 for 2 weeks. Colonies were stained with 0.005% crystal violet (Sigma-Aldrich), and counted using a dissecting microscope under high-power field."}, "HCT116 clones #101, #102": {"test_system": "HCT116 clones #101, #102", "test": "Conditional induction of apoptosis, propidium iodide staining and flow cytometry", "assay_type": "cell-based", "conditions": "doxycycline induction plus adriamycin, adriamycin-sensitive clones", "source_text": "Breast adenocarcinoma MCF-7, colon adenocarcinoma HCT116, or prostate adenocarcinoma PC3 cells were obtained from the American Type Culture Collection (ATCC, Manassas Va.), and maintained in culture as recommended by the supplier. Wild-type, p53^−/−, or Chk2^−/− HCT116 cells were kindly provided by Dr. B. Vogelstein (Johns Hopkins University, Baltimore, Md.). The rat insulinoma cell line INS-1 stably transfected with mitochondrially-targeted survivin fused to GFP was created as previously described. Dohi et al., “Mitochondrial survivin inhibits apoptosis and promotes tumorigenesis” J Clin Invest 114:1117-1127 (2004). Wild-type HCT116 cells were stably transfected to conditionally express a kinase-dead Asp^347 Asn^347 Chk2 dominant-negative (DN) cDNA under the control of a tetracycline (tet)-regulated promoter (tet-on system, Clontech), as described previously. Grossman et al., “Inhibition of melanoma tumor growth in vivo by survivin targeting” Proc. Natl. Acad. Sci. U.S.A. 98:635-640 (2001). Conditional induction of Chk2-DN was monitored after addition of 2 μg/ml doxycycline (dox).\n[…] Alternatively, cells were exposed to ionizing radiation, and analyzed after 24-48 h for propidium iodide staining (red channel) and active caspase-3 activity (CaspaTag®, Intergen®, green channel), by simultaneous multiparametric flow cytometry. […]"}},
  "data": [
    {"molecule": "CN[C@@H]1C[C@H]2O[C@@](C)([C@@H]1OC)n1c3ccccc3c3c4c(c5c6ccccc6n2c5c31)C(=O)NC4O", "note": "(stereo partly drawn) [UCN-01]", "values": [
      {"measurement": "confirmation of Chk2 potency", "setting": "Chk2", "result": "could not be confirmed"}
    ]},
    {"molecule": "COc1cccc2c1C(=O)c1c(O)c3c(c(O)c1C2=O)C[C@@](O)(C(=O)CO)C[C@@H]3O[C@H]1C[C@H](N)[C@H](O)[C@H](C)O1", "note": "[adriamycin]", "values": [
      {"measurement": "survivin expression", "setting": "[1]", "result": "concentration-dependent increase in survivin"},
      {"measurement": "effect on tumor growth", "setting": "[2]; adriamycin-resistant clone #202, SCID/beige mice", "result": "no effect"},
      {"measurement": "inhibition of tumor growth", "setting": "[2]; adriamycin-sensitive clone #102, SCID/beige mice, adriamycin 2 mg/kg", "result": "50-60%"}
    ]},
    {"molecule": "Chk2-DN: kinase-dead Asp347 to Asn347 Chk2 dominant-negative mutant, expressed by transfection, adenovirus or tet-on system", "values": [
      {"measurement": "induction of caspase activity and cell death", "setting": "HCT116 cells [3]", "result": "comparable induction of caspase activity and cell death"},
      {"measurement": "ionizing radiation-induced survivin expression", "setting": "MCF-7 cells", "result": "abolished the increase in survivin expression"},
      {"measurement": "colony formation in soft agar", "setting": "HCT116 cells [4]", "result": "nearly completely abolished"},
      {"measurement": "induction of apoptosis", "setting": "HCT116 clones #101, #102", "result": "2- to 4 fold"}
    ]},
    {"molecule": "Thr^34→Ala^34 survivin-DN: dominant-negative survivin mutant delivered by replication deficient adenovirus", "values": [
      {"measurement": "colony formation in soft agar", "setting": "HCT116 cells [4]", "result": "nearly completely abolished"}
    ]}
  ]
}
